The results in this text go back to patent US20220098197A1, “SALTS OF HETEROCYCLIC COMPOUND AND USE THEREOF” (priority 2019, published 2022).

The test system of assay [1] is neutrophils. Briefly: PGD2-induced neutrophils migration, Boyden chamber assay (Example 1). The format is cell-based, mice. The note with it: pretreatment CT-NA 1 and 10 μM (p<0.01) or OC459; PGD2 1 μM; 4 hrs. How it is done:
The mice were intragastrically administered glycogen (1.5%) at the dose range of 20 ml/kg of body weight. 4 hrs later, the mice were euthanized to isolate neutrophils from the peritoneal lavage. The effect of CT-NA on neutrophils migration was detected by using the Boyden chamber assay kit (3 μm pore size). PGD2 was used as a chemoattractant because the activated PGD2/CRTH2 receptors promoted the migration of neutrophils. Initially, the isolated neutrophils (4×10^5) were diluted in 100 μL HBSS and allowed to migrate toward PGD2 (0.1, 1 and 10 μM) for 4 hrs to find out the suitable PGD2 concentration. Then, the isolated neutrophils (4×10^5) were pretreated with CT-NA (1 and 10 μM), and their migration to PGD2 (1 μM) was evaluated by counting the migrated neutrophils. Moreover, another potent CRTH2 inhibitor OC459 was used to countercheck the outcomes of CT-NA.

Assay [2] relates to neutrophils. The assay can be described thus: PGD2-induced neutrophils migration in vitro, Boyden chamber (Example 2). The format is cell-based, mice. The note with it: pretreatment CT-NA 1 μM or 10 μM, OC459 10 μM; 4 hrs; P<0.01. The protocol: The method for isolating neutrophils and testing effect of CT-NA on neutrophils migration was briefly described as follows. 1.5% glycogen was injected intragastrically into mice at a dose of 20 ml/kg body weight. 4 hrs later, the mice were euthanized to isolate neutrophils from the peritoneal lavage. Effect of CT-NA on the migration of neutrophils was detected using the Boyden chamber assay kit (3 um pore size, Billerica, Mass.). PGD2 was used as a chemoattractant because the activated PGD2/CRTH2 receptors promoted the neutrophils migration. Firstly, the isolated neutrophils were inoculated at 4×10^5 cells/ml into the upper side of well of the Boyden chamber, and the lower chamber contained different concentrations of PGD2 (0.1, 1 and 10 μM), and the neutrophils were allowed to migrate towards PGD2 for 4 hrs at 37° C. in order to find out the suitable PGD2 concentration. After evaluation of the suitable PGD2 concentration, the migration of neutrophils pretreated with CT-NA (1 and 10 μM) and OC459 (10 μM), another effective CRTH2 inhibitor, toward PGD2 (1 μM) was assessed for 4 hrs.

Take `Cc1c(Cc2ccc3ccccc3n2)c2cc(F)ccc2n1CC(=O)O` [OC459, reference compound]: in the assay with neutrophils [1], the PGD2-induced neutrophils migration result is “inhibited”. In the assay on neutrophils [2], the “neutrophils migration induced by 1 μM PGD2” value was “significantly reduced”.
